{"source": "patent US12042479B2", "about": "“Use of topical formulations of cannabinoids in the treatment of epidermolysis bullosa and related connective tissue disorders” (priority 2016, dated 2024)", "key": {"[1]": {"tested_on": "keratins K5, K6, K14, K15, K16, K17", "experiment": "Keratin expression in HaCaT keratinocytes by Western blot", "assay_type": "cell-based, human", "conditions": "for expression of K15: Western blot, cells pretreated with IFNγ/TNFα, FIG. 6 right; for K5 protein expression / K14 protein expression / K15 protein expression / K16 protein expression / K17 protein expression: post-differentiating human keratinocyte cells, concentration dependent effect, FIG. 20", "protocol": "Cell culturing was performed as follows: HaCaT, human immortalized keratinocyte cell line was cultured in Dulbecco's Modified Eagle Medium (DMEM; Life Technologies Hungary Ltd.) supplemented with 10 (V/V) % fetal bovine serum (FBS; Life Technologies Hungary Ltd.) and antibiotics mixture (penicillin and streptomycin in 1:100; PAA Laboratories GmbH, Pasching, Austria) and Fungizone® Antimicotic (in 1:200; Life Technologies Hungary Ltd.) respectively.\nCells were cultured at 37° C. in humidified, 5% CO2-containing atmosphere, the medium was changed every other day, and cells were sub-cultured at 70-80% confluence in all cases. For the drug treatment, the medium was changed every day.\nWestern blotting was used to determine the expression of keratins in HaCaT cells. The initial cell count was 2×10^5 cells/per Petri dish in “small” (d=35 mm) Petri dishes in 1.5 mL culture medium (DMEM supplemented with FBS (10%), antibiotics and antimycotics). Cells were harvested at the following stages: preconfluent (proliferating) and postconfluent (differentiating). The combinations employed for Western blotting were cannabidiols:cannabinol (1:0.1 μM), cannabidiols:cannabinol (0.1:1 μM), and cannabidiols:cannabinol (1:1 μM). The genes whose expression was investigated by Western blotting were GAPDH or β-actin as internal controls and (K1), K5, K6, (K10), K14, K15, K16, and K17. Protein samples were used at 5 μl/well. The standards used were PageRuler Plus Prestained (Pierce). Electrophoresis was at 100 volts.\nTransfer was performed using the Trans-Blot® Turbo™ Transfer System (1.3 A, 25 V, 7 min). The primary antibody was used at 1:100 in 5% milk containing PBS; overnight at 4° C.; the primary antibody was guinea pig anti-human keratins: anti human Keratin 1, Keratin 5, Keratin 6, Keratin 14, Keratin 15, Keratin 16, Keratin 17 (from Lutz Langbein; predicted band: […]). The secondary antibody was used at 1:1000 in 5% milk containing PBS; 1 hr at RT; the secondary antibody was HRP-conjugated goat anti-Guinea Pig IgG (Santa Cruz). The loading controls were Rabbit anti-human GAPDH (Novus Biologicals; Cat. No.: NB300-322; predicted band: ˜37 kDa) or anti-human β-actin (Sigma-Aldrich; Cat. No.: A2668; predicted band: ˜42 kDa) 1:1000 in 5% milk containing PBS. HRP-conjugated goat anti-rabbit IgG Fc-segment (BioRad 170-6515; 1:1000) was used.\nFor statistical analysis, data were analyzed and graphs were plotted by using Origin Pro Plus 6.0 software (Microcal, Northampton, MA, USA), using Student's two-tailed two samples t-test and P<0.05 values were regarded as significant differences."}, "CCL2/MCP-1": {"tested_on": "CCL2/MCP-1", "assay_type": "cell-based, human"}, "IL-8": {"tested_on": "IL-8", "experiment": "IL-8 production by human keratinocytes", "assay_type": "cell-based", "conditions": "basal, FIG. 13"}, "IL-6": {"tested_on": "IL-6", "experiment": "IFNγ/TNFα-induced IL-6 production by human keratinocytes", "assay_type": "cell-based", "conditions": "FIG. 13"}, "[2]": {"experiment": "Skin penetration, Franz diffusion cell", "assay_type": "in vitro ADME, porcine", "conditions": "after 18 hours at 32° C.; 400 μg applied; LABRASOL/Plo-gel formulation; FIG. 18", "protocol": "Skin penetration of formulations described herein was measured according to the following procedure: the formulation was LABRASOL® (caprylocaproyl polyoxyl-8 glycerides), Plo-gel (Poloxomer 407, Lecithin, isopropyl palmitate). The formulation is applied to the center part of the circle and is rubbed to the skin using a […]. The sample is mounted to the top of a Franz diffusion cell with the outer layer of the skin facing upward. The receptor medium of the Franz cell is filled with phosphate buffer. The cap of the cell is mounted and clamped. This construct is placed inside the incubator/shaker for 18 hours at 32° C. (FIG. 14)."}, "CB1 receptor": {"tested_on": "CB1 receptor", "experiment": "CB1 receptor expression by human fibroblasts under TGFβ1 (western blot)", "assay_type": "cell-based", "conditions": "CB1 receptor/HSP90 ratio, FIG. 22"}, "αSMA": {"tested_on": "αSMA", "experiment": "TGFβ1-induced αSMA expression in human fibroblasts (immunoblot)", "assay_type": "cell-based", "conditions": "αSMA/HSP90 ratio, FIG. 23", "protocol": "Experimental Design: HaCaT and HFL-1 cells cultured in 24-well plates (1×10^5 cells/well/mL) in DMEM supplemented with 1% FBS and antibiotics/antimycotics in the presence of INM-501, INM-509, INM-505, INM-506, INM-513 (cannabigerol (CBG)), INM-517, HU-210 ((6aR,10aR)-9-(hydroxymethyl)-6,6-dimethyl-3-(2-methyloctan-2-yl)-6H,6aH,7H,10H,10aH-benzo[c]isochromen-1-ol)), and SR144528 (all at 1 μM concentration, EchoPharmaceuticals, AT Nijmegen, The Netherlands, Cayman Chemical, Ann Arbor, MI) alone or with simultaneously added human recombinant TGFβ1 at 10 and 20 ng/ml concentrations for 72 hr. Cell culture supernatants were removed and cells were lyzed with Cell Protein Extraction Buffer supplemented with Proteinases/Phosphatases Inhibitors Cocktail. […]\n(§1) Assay Procedures: EMT induced by TGFβ1 in keratinocytes was analyzed by expression of human E-Cadherin (E-CDH) and Cellular Fibronectin (FBN-EDA). Fibroblast activation and differentiation was determined by αSMA expression. E-CDH, FBN-EDA and αSMA proteins were determined by SDS-PAGE and Immunobloting using mouse anti-human E-CDH, FBN-EDA and αSMA monoclonal antibodies. […] Density of the bands was quantified in two infrared channels independently using Odyssey software 2.1 (LI-COR Biosciences). The results are expressed as a protein/β-tubulin/HSP90 density ratio."}, "E-cadherin": {"tested_on": "E-cadherin", "experiment": "TGFβ1-induced E-cadherin inhibition in HaCaT keratinocytes (immunoblot)", "assay_type": "cell-based", "conditions": "human keratinocytes; E-cadherin/β-tubulin ratio; FIG. 21, 24", "source_text": "(§2) For western blotting in the wound healing analysis, epithelial-mesenchymal transition (EMT) is a critical element of epithelial biology, cancer development, and fibrosis. Chronic activation of TGF-β-signaling in the skin ultimately leads to fibrosis (keloid). EMT of keratinocytes is adaptive response in the normal wound healing process. It is characterized by decrease of E-cadherin (important element of keratinocyte integrity and tight junction formation) expression and upregulation of cellular fibronectin (Fibronectin-EDA) production. The latter is a very important protective element of epithelial cells during mucosal tissue repairs.\n(§3) Total protein extracts were prepared from synchronized HaCaT cells at different times. […]\nas §1"}, "fibronectin-EDA": {"tested_on": "fibronectin-EDA", "experiment": "TGFβ1-induced fibronectin-EDA expression in HaCaT keratinocytes (immunoblot)", "assay_type": "cell-based", "conditions": "human keratinocytes; fibronectin-EDA/β-tubulin ratio; FIG. 21, 25", "source_text": "as §2, §3, §1"}, "[3]": {"tested_on": "keratins K5, K6, K14, K15, K16, K17", "experiment": "Keratin expression in HaCaT keratinocytes by Western blot", "assay_type": "cell-based, human", "conditions": "10 μM"}}, "note": "Entries after “also recorded” stand apart in the source; their conditions may differ. Read-outs that look alike come from different tables or passages of the source.", "data": [{"smiles": "C=C(C)[C@@H]1CCC(C)=C[C@H]1c1c(O)cc(CCCCC)cc1O", "note": "[INM-505, cannabidiols]", "values": [{"measurement": "expression of K15", "setting": "[1]", "value": "promote"}, {"measurement": "K5 protein expression", "setting": "[1]", "value": "generally increases"}, {"measurement": "K14 protein expression", "setting": "[1]", "value": "generally increases"}, {"measurement": "K15 protein expression", "setting": "[1]", "value": "generally increases"}, {"measurement": "K16 protein expression", "setting": "[1]", "value": "generally increases"}, {"measurement": "K17 protein expression", "setting": "[1]", "value": "generally increases"}, {"measurement": "IFNγ/TNFα-induced CCL2/MCP-1 production", "setting": "CCL2/MCP-1", "value": "upregulated; also recorded: increase"}, {"measurement": "IL-8 production", "setting": "IL-8", "value": "highly selective inhibitory effect"}, {"measurement": "production of IL-6 by IFNγ/TNFα", "setting": "IL-6", "value": "attenuate"}, {"measurement": "location of cannabinoid molecules in skin", "setting": "[2]", "value": "located in keratinocytes and basal cells"}]}, {"smiles": "COc1ccc(C(=O)c2c(C)n(CCN3CCOCC3)c3cc(I)ccc23)cc1", "note": "[AM630, 6-iodopravadoline]", "values": [{"measurement": "cell responsiveness to TGFβ1", "setting": "CB1 receptor", "value": "modify"}]}, {"smiles": "CCCCCc1cc(O)c(C/C=C(\\C)CCC=C(C)C)c(O)c1", "note": "[INM-513, cannabigerol]", "values": [{"measurement": "IFNγ/TNFα-induced CCL2/MCP-1 production", "setting": "CCL2/MCP-1", "value": "upregulated"}]}, {"smiles": "CCCCCCC(C)(C)c1cc(O)c2c(c1)OC(C)(C)[C@@H]1CC=C(CO)C[C@@H]21", "note": "[HU-210, (6aR,10aR)-9-(hydroxymethyl)-6,6-dimethyl-3-(2-methyloctan-2-yl)-6H,6aH,7H,10H,10aH-benzo[c]isochromen-1-ol]", "values": [{"measurement": "IFNγ/TNFα-induced CCL2/MCP-1 production", "setting": "CCL2/MCP-1", "value": "upregulated; also recorded: highest effect; also recorded: increase"}]}, {"smiles": "Cc1c(C(=O)NN2CCCCC2)nn(-c2ccc(Cl)cc2Cl)c1-c1ccc(I)cc1", "note": "[AM251, N-(piperidin-1-yl)-5-(4-iodophenyl)-1-(2,4-dichlorophenyl)-4-methyl-1H-pyrazole-3-carboxamide]", "values": [{"measurement": "TGFβ1-induced αSMA expression (TGFβ1-responsiveness)", "setting": "αSMA", "value": "upregulating"}, {"measurement": "cell responsiveness to TGFβ1", "setting": "CB1 receptor", "value": "modify"}]}, {"smiles": "Cc1ccc(Cn2nc(C(=O)N[C@@H]3C(C)(C)[C@@H]4CC[C@@]3(C)C4)cc2-c2ccc(Cl)c(C)c2)cc1", "note": "[SR144528, 5-(4-chloro-3-methylphenyl)-1-[(4-methylphenyl)methyl]-N-[(1S,2S,4R)-1,3,3-trimethylbicyclo[2.2.1]heptan-2-yl]-1H-pyrazole-3-carboxamide]", "values": [{"measurement": "basal CCL2 production", "setting": "CCL2/MCP-1; HaCaT, 72 hr, method prints 1 mM, b249 prints 1 μM", "value": "did not significantly change"}, {"measurement": "IFNγ/TNFα-induced CCL2/MCP-1 production", "setting": "CCL2/MCP-1; HaCaT, IFNγ and TNFα 10 ng/ml, 72 hr, method prints 1 mM, b249 prints 1 μM", "value": "did not significantly change"}]}, {"smiles": "CCCCCc1cc(O)c2c(c1)OC(C)(C)c1ccc(C)cc1-2", "note": "[INM-517, 6,6,9-trimethyl-3-pentylbenzo[c]chromen-1-ol]", "values": [{"measurement": "expression of K15", "setting": "[1]", "value": "promote"}, {"measurement": "K5 protein expression", "setting": "[1]", "value": "generally increases"}, {"measurement": "K14 protein expression", "setting": "[1]", "value": "generally increases"}, {"measurement": "K15 protein expression", "setting": "[1]", "value": "generally increases"}, {"measurement": "K16 protein expression", "setting": "[1]", "value": "generally increases"}, {"measurement": "K17 protein expression", "setting": "[1]", "value": "generally increases"}, {"measurement": "TGF-β-induced downregulation of E-cadherin", "setting": "E-cadherin", "value": "strong and potent effect"}, {"measurement": "TGF-β-induced fibronectin-EDA expression", "setting": "fibronectin-EDA", "value": "preserving"}, {"measurement": "K14 gene expression", "setting": "[3]", "value": "downregulated"}]}, {"smiles": "CCCCCc1cc(O)c2c(c1)OC(C)(C)[C@@H]1CCC(C)=C[C@@H]21", "note": "[Δ^9-tetrahydrocannabinol]", "values": [{"measurement": "IFNγ/TNFα-induced CCL2/MCP-1 production", "setting": "CCL2/MCP-1", "value": "no significant effects"}, {"measurement": "basal CCL2 production", "setting": "CCL2/MCP-1", "value": "no significant effects"}]}]}
